Laboratory results from US6653306B1, “Epoxy-steroidal aldosterone antagonist and angiotensin II antagonist combination therapy” (G.D. Searle & Co., priority 1995, dated 2003).
Values joined by “and” are separate entries in the source; they are usually repeats but may differ in a detail not shown here. Equal values may be shown once.

Legend:
[1] = target: angiotensin II AT1 receptor; assay: Assay A: Angiotensin II binding activity (125I-AII displacement, rat uterine membrane preparation)
[2] = tested on: rabbit aortic rings; assay: Assay B: In vitro vascular smooth muscle response for AII (antagonist activity, pA2); assay type: cell-based; conditions: in vitro vascular smooth muscle response, two values per cell separated by / are separate determinations
In short: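 Endothelium-denuded thoracic aortic rings from male New Zealand white rabbits, in oxygenated Krebs at 37 °C under ~1 g tension; isometric contraction to AII (3×10^−10 to 1×10^−5 M).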

[3] = tested on: pressor response to AII; assay: Assay C: In vivo intragastric pressor assay response for AII antagonists; set-up: species or system rat; conditions: dose 3 mg/kg, intragastric, or intraduodenal for examples listed; for inhibition at 3 mg/kg: Rattus norvegicus
In short: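 Conscious male Sprague-Dawley rats with arterial and venous catheters received 30 ng/kg i.v. angiotensin II boluses before and at 30–180 min after gavage of compound (standard 3 mg/kg in 0.5% methylcellulose). Pressor rise in mmHg measured; percent inhibition calculated versus averaged control response at each time point.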

SMILES	IC50 [1] [nM]	Assay B pA2 [2]	inhibition at 3 mg/kg [3] [%]	Assay C Duration [3] [min]	Kb ([2]; Oryctolagus cuniculus, read-out: Assay B pA2 (converted)) [nM]
CCCCc1cn(-c2c(OC)cccc2OC)c(=O)n1Cc1ccc(-c2ccccc2-c2nnn[nH]2)cc1 [Compound 273]	9.8	8.53 and 8.61	25	>180	
CCCCc1cn(-c2c(C)cccc2Cl)c(=O)n1Cc1ccc(-c2ccccc2-c2nnn[nH]2)cc1 [Compound 274]	13	9.06 and 8.85	35	>180	
CCCCc1cn(-c2c(C)cccc2C)c(=O)n1Cc1ccc(-c2ccccc2-c2nnn[nH]2)cc1 [Compound 275]	6.3		40	>180	0.851
CCCCc1cn(-c2c(CC)cccc2CC)c(=O)n1Cc1ccc(-c2ccccc2-c2nnn[nH]2)cc1 [Compound 276]	33	8.71 and 8.64	< 20		
CCCCc1cn(-c2c(C)cc(C)cc2C)c(=O)n1Cc1ccc(-c2ccccc2-c2nnn[nH]2)cc1 [Compound 278]	30	8.49 and 8.51	50	>180	
